What all share (assay type): biochemical
The target of test [1] is activated human C1 (Homo sapiens, UniProt P09871). The test is described as follows: Test Code 026 (C1 inhibitor). The settings on record: serial dilution assay, twofold dilutions; higher well number indicates higher activity. An excerpt: (§1) An active inhibitor protects C2 from C1 and C4; (ii) Test Code 035 (C3-C9 inhibitor)--This test determines the ability of the late components of human complement (C3-C9) to lyse EAC 142 in the presence of appropriate dilutions of the test compound. An active inhibitor protects EAC 142 from lysis by human C3-C9; (iii) Test Code 036 (C-Shunt inhibitor)--In this test human erythrocytes rendered fragile are lysed in autologous serum via the shunt pathway activated by cobra venom factor in the presence of appropriate dilutions of the test compound. Inhibition of the shunt pathway results in failure of lysis; (iv) Forssman Vasculitis Test--Here, the well known complement dependent lesion, Forssman Vasculitis, is produced in guinea pigs by intradermal injection of rabbit anti-Forssman antiserum. The lesion is measured in terms of diameter, edema and hemorrhage and the extent to which a combined index of these is inhibited by prior intraperitoneal injection of the test compound at 200 mg/kg is then reported, unless otherwise stated; (v) Forssman Shock Test--Lethal shock is produced in guinea pigs by an i.v. injection of anti-Forssman antiserum and the harmonic mean death time of treated guinea pigs is compared with that of simultaneous controls; (vi) Complement Level Reduction Test--In this test, the above dosed guinea pigs, or others, are bled for serum and the complement level is determined in undiluted serum by the capillary tube method of U.S. Pat. No. 3,876,376 and compared to undosed control guinea pigs; and (vii) Cap 50 Test--Here, appropriate amounts of the test compound are added to a pool of guinea pig serum in vitro, after which the undiluted serum capillary tube assay referred to above is run. The concentration of compound inhibiting 50% is reported.

The subject of test [2] is late components of human complement (C3-C9). The test is described as follows: Test Code 035 (C3-C9 inhibitor), lysis of EAC 142. The settings on record: serial dilution assay, twofold dilutions; higher well number indicates higher activity; N = Negative.
Description: as §1

Test [3] deals with shunt pathway. Briefly: Test Code 036 (C-Shunt inhibitor), lysis of fragile human erythrocytes in autologous serum, cobra venom factor. The settings on record: serial dilution assay, twofold dilutions; higher well number indicates higher activity; N = Negative.
Description: as §1

Counter-ions that a name gives are not always drawn.

Consider `[N-]=[N+]=NC[C@H]1O[C@@H]2O[C@H]3[C@H](OS(=O)(=O)O)[C@@H](OS(=O)(=O)O)[C@@H](O[C@H]4[C@H](OS(=O)(=O)O)[C@@H](OS(=O)(=O)O)[C@@H](O[C@H]5[C@H](OS(=O)(=O)O)[C@@H](OS(=O)(=O)O)[C@@H](O[C@H]6[C@H](OS(=O)(=O)O)[C@@H](OS(=O)(=O)O)[C@@H](O[C@H]7[C@H](OS(=O)(=O)O)[C@@H](OS(=O)(=O)O)[C@@H](O[C@H]1[C@H](OS(=O)(=O)O)[C@H]2OS(=O)(=O)O)O[C@@H]7CN=[N+]=[N-])O[C@@H]6CN=[N+]=[N-])O[C@@H]5CN=[N+]=[N-])O[C@@H]4CN=[N+]=[N-])O[C@@H]3CN=[N+]=[N-]` [α-Cyclo[6-azido-6-deoxy]dextrin poly(H-sulfate)poly-sodium s] [6,6',6",6'",6"",6'""-Hexaazido-6,6',6",6'",6"",6'""-hexadeoxy-α-cyclodextrin, dodecakis(H-sulfate), dodecasodium salt], for which, in test [1], the “026 Activity in wells” value turned out to be 7 wells. Moreover, the “035 Activity in wells” value in test [2] worked out at 1 wells. Moreover, the “036 Activity in wells” value in test [3] turned out to be 4 wells.
For `[N-]=[N+]=NC[C@H]1O[C@@H]2O[C@H]3[C@H](OS(=O)(=O)O)[C@@H](OS(=O)(=O)O)[C@@H](O[C@H]4[C@H](OS(=O)(=O)O)[C@@H](OS(=O)(=O)O)[C@@H](O[C@H]5[C@H](OS(=O)(=O)O)[C@@H](OS(=O)(=O)O)[C@@H](O[C@H]6[C@H](OS(=O)(=O)O)[C@@H](OS(=O)(=O)O)[C@@H](O[C@H]7[C@H](OS(=O)(=O)O)[C@@H](OS(=O)(=O)O)[C@@H](O[C@H]1[C@H](OS(=O)(=O)O)[C@H]2OS(=O)(=O)O)O[C@@H]7CN=[N+]=[N-])O[C@@H]6CN=[N+]=[N-])O[C@@H]5CN=[N+]=[N-])O[C@@H]4CN=[N+]=[N-])O[C@@H]3CN=[N+]=[N-]` [α-Cyclo[6-azido-6-deoxy]dextrin poly(H-sulfate)poly-trimethy] [6,6',6",6'",6"",6'""-Hexaazido-6,6',6",6'",6"",6'""-hexadeoxy-α-cyclodextrin, dodecakis(H-sulfate), dodecasalt with trimethylamine] the same measures were 2 wells, “N” and “N”.
For `O=S(=O)(O)O[C@@H]1[C@@H](OS(=O)(=O)O)[C@H]2O[C@H]3[C@H](OS(=O)(=O)O)[C@@H](OS(=O)(=O)O)[C@@H](O[C@H]4[C@H](OS(=O)(=O)O)[C@@H](OS(=O)(=O)O)[C@@H](O[C@H]5[C@H](OS(=O)(=O)O)[C@@H](OS(=O)(=O)O)[C@@H](O[C@H]6[C@H](OS(=O)(=O)O)[C@@H](OS(=O)(=O)O)[C@@H](O[C@H]7[C@H](OS(=O)(=O)O)[C@@H](OS(=O)(=O)O)[C@@H](O[C@@H]1[C@@H](CBr)O2)O[C@@H]7CBr)O[C@@H]6CBr)O[C@@H]5CBr)O[C@@H]4CBr)O[C@@H]3CBr` [α-Cyclo[6-bromo-6-deoxy]dextrin poly (H-sulfate)poly-sodium ] [6,6',6",6'",6"",6'""-Hexabromo-6,6',6",6'",6"",6'""-hexadeoxy-α-cyclodextrin dodecakis(H-sulfate), dodecasodium salt] the same measures were 6 wells, 5 wells and 4 wells.
On to `O=S(=O)(O)O[C@@H]1[C@@H](OS(=O)(=O)O)[C@H]2O[C@H]3[C@H](OS(=O)(=O)O)[C@@H](OS(=O)(=O)O)[C@@H](O[C@H]4[C@H](OS(=O)(=O)O)[C@@H](OS(=O)(=O)O)[C@@H](O[C@H]5[C@H](OS(=O)(=O)O)[C@@H](OS(=O)(=O)O)[C@@H](O[C@H]6[C@H](OS(=O)(=O)O)[C@@H](OS(=O)(=O)O)[C@@H](O[C@H]7[C@H](OS(=O)(=O)O)[C@@H](OS(=O)(=O)O)[C@@H](O[C@@H]1[C@@H](CBr)O2)O[C@@H]7CBr)O[C@@H]6CBr)O[C@@H]5CBr)O[C@@H]4CBr)O[C@@H]3CBr` [α-Cyclo[6-bromo-6-deoxy]dextrin poly(H-sulfate)poly-trimethy] [α-Cyclo[6-bromo-6-deoxy]dextrin poly(H-sulfate)poly-trimethylamine salt], for which the “026 Activity in wells” value in test [1] was found to be 2 wells. Moreover, in test [2], the “035 Activity in wells” value is recorded as 2 wells. Also, the “036 Activity in wells” value in test [3] is recorded as “N”.
In the case of `N#CSC[C@H]1O[C@@H]2O[C@H]3[C@H](OS(=O)(=O)O)[C@@H](OS(=O)(=O)O)[C@@H](O[C@H]4[C@H](OS(=O)(=O)O)[C@@H](OS(=O)(=O)O)[C@@H](O[C@H]5[C@H](OS(=O)(=O)O)[C@@H](OS(=O)(=O)O)[C@@H](O[C@H]6[C@H](OS(=O)(=O)O)[C@@H](OS(=O)(=O)O)[C@@H](O[C@H]7[C@H](OS(=O)(=O)O)[C@@H](OS(=O)(=O)O)[C@@H](O[C@H]1[C@H](OS(=O)(=O)O)[C@H]2OS(=O)(=O)O)O[C@@H]7CSC#N)O[C@@H]6CSC#N)O[C@@H]5CSC#N)O[C@@H]4CSC#N)O[C@@H]3CSC#N` [α-Cyclo[6-deoxy-6-thiocyanato]dextrin poly(H-sulfate)poly-so] [6,6',6",6'",6"",6'""-Hexadeoxy-6,6',6",6'",6"",6'""-hexathiocyanato-α-cyclodextrin, dodecakis(H-sulfate), dodecasodium salt], the “026 Activity in wells” value in test [1] came out at 7 wells. For the same molecule, the “035 Activity in wells” value in test [2] was 2 wells. Moreover, the “036 Activity in wells” value in test [3] was 4 wells.
Turning to `N#CSC[C@H]1O[C@@H]2O[C@H]3[C@H](OS(=O)(=O)O)[C@@H](OS(=O)(=O)O)[C@@H](O[C@H]4[C@H](OS(=O)(=O)O)[C@@H](OS(=O)(=O)O)[C@@H](O[C@H]5[C@H](OS(=O)(=O)O)[C@@H](OS(=O)(=O)O)[C@@H](O[C@H]6[C@H](OS(=O)(=O)O)[C@@H](OS(=O)(=O)O)[C@@H](O[C@H]7[C@H](OS(=O)(=O)O)[C@@H](OS(=O)(=O)O)[C@@H](O[C@H]1[C@H](OS(=O)(=O)O)[C@H]2OS(=O)(=O)O)O[C@@H]7CSC#N)O[C@@H]6CSC#N)O[C@@H]5CSC#N)O[C@@H]4CSC#N)O[C@@H]3CSC#N` [α-Cyclo[6-deoxy-6-thiocyanato]dextrin poly(H-sulfate)poly-tr] [6,6',6",6'",6"",6'""-Hexadeoxy-6,6',6",6'",6"",6'""-hexathiocyanato-α-cyclodextrin, dodecakis(H-sulfate), dodecasalt with trimethylamine], the “026 Activity in wells” value in test [1] was 1 wells. The “035 Activity in wells” value in test [2] is reported as “N”. Besides, the “036 Activity in wells” value in test [3] is “N”.
`C[C@H]1O[C@@H]2O[C@H]3[C@H](OS(=O)(=O)O)[C@@H](OS(=O)(=O)O)[C@@H](O[C@H]4[C@H](OS(=O)(=O)O)[C@@H](OS(=O)(=O)O)[C@@H](O[C@H]5[C@H](OS(=O)(=O)O)[C@@H](OS(=O)(=O)O)[C@@H](O[C@H]6[C@H](OS(=O)(=O)O)[C@@H](OS(=O)(=O)O)[C@@H](O[C@H]7[C@H](OS(=O)(=O)O)[C@@H](OS(=O)(=O)O)[C@@H](O[C@H]1[C@H](OS(=O)(=O)O)[C@H]2OS(=O)(=O)O)O[C@@H]7C)O[C@@H]6C)O[C@@H]5C)O[C@@H]4C)O[C@@H]3C` [α-Cyclo[6-deoxy]dextrin poly(H-sulfate)poly-sodium salt] [6,6',6",6'",6"",6'""-Hexadeoxy-α-cyclodextrin, dodecakis(H-sulfate), dodecasodium salt]: in test [1], the “026 Activity in wells” value came to 8 wells. The “035 Activity in wells” value in test [2] amounted to 1 wells. In test [3], the “036 Activity in wells” value is recorded as 4 wells.

These data come from patent publication US4258180A, “C6-Modified cyclodextrin sulfate salts as complement inhibitors” (American Cyanamid Company, priority 1979, dated 1981).
